Experimental data as given in PMC6538733, “Chemical Constituents from Mentha haplocalyx Briq. (Mentha canadensis L.) and Their α-Glucosidase Inhibitory Activities” (Natural Products and Bioprospecting, 2019).

Each molecule was assayed against α-glucosidase (assay: pNPG hydrolysis assay, absorbance at […] nm).
Format: biochemical
Work on `C=C(C)[C@@H]1CC=C(C)[C@H](O[C@@H]2O[C@H](CO)[C@@H](O)[C@H](O)[C@H]2O)C1` [compound 3, (4R,6R)-carveol β-D-glucoside] yielded an IC50 of 516 µM.
With `C=C(C)[C@@H]1CC=C(C)[C@@H](O[C@@H]2O[C@H](CO)[C@@H](O)[C@H](O)[C@H]2O)C1` [compound 4, (4R,6S)-carveol β-D-glucoside] the IC50 was 919 µM.
Work on `CC1=C(CC[C@H](C)O)C(C)(C)C[C@H](O[C@@H]2O[C@H](CO)[C@@H](O)[C@H](O)[C@H]2O)C1` [compound 11, (3R,9S)-megastigman-5-en-3,9-diol 3-O-β-D-glucopyranoside] yielded an IC50 of 83.4 µM.
